From patent US10266510B2, “Antimicrobial and cytotoxic compounds and methods for treating cancer, a bacterial infection, and/or a fungal infection” (King Abdulaziz University, priority 2017, dated 2019)

Key:
Test in all cases: Well diffusion agar method, inhibition zone
Format in all cases: cell-based
[1] = test system: Escherichia coli ATCC 25922
Description: (§1) The ability to inhibit the growth of Gram-positive and Gram-negative bacteria, yeasts and filamentous fungi was observed using an overlay method (S. R. Connell, D. M. Tracz, K. H. Nierhaus, D. E. Taylor, Antimicrob. Agents Chemother. 47, 3675 (2003), incorporated herein by reference in its entirety).
(§2) The common pathogenic and food spoilage microorganisms were selected for their relevance in bakery products and other food: the gram-positive bacteria: Bacillus subtilits NRRL-B-4219, Staphylococcus aureus ATCC 6538, Enterococcus faecalis ATCC 19433; the gram negative bacteria: Escherichia coli ATCC 25922, Pseudomonas aeruginosa ATCC 9027, Proteus sp.; yeasts, such as Candida albicans ATCC 10231; and fungi: Aspergillus niger NRRL 2766 (equivalent to ATCC 16888), and Aspergillus flavus ATCC 16883. The bacteria were slanted on nutrient agar (Merck, Darmstadt, Germany), yeast was slanted and mentioned on Sabaroud's agar medium (Lab M., Bury, Lancashire, UK) and the fungi was slanted and mentioned on the potato Dextrose Agar medium (Lab M Limited, Bury, Lancashire, UK). Mueller-Hinton agar (Lab M., Bury, Lancashire, UK) following the manufacturer's instructions was used for the assay.
(§3) All compounds were dissolved in dimethyl sulfoxide (RFCL Limited, New Delhi, India) at 50 μg/mL concentration as shown in Table 4 in comparison with different standard antibiotics. Antibiotic discs of Streptomycin (S) (10 μg), Oxytetracycline (T) (30 μg), and Tetracyciline (TE) (30 μg) were used as positive controls for bacteria. Neomycin (N) (30 μg), was used for fungi.
(§4) The antibacterial screening was performed with the well diffusion agar method (S. T. Williams, M. Goodfellow, E. M. H. Wellington, J. C. Vickers, G. Alderson, P. H. A. Sneath, S. M. J. Sackins, A. M. Mortimer, J. Gen. Microbiol. 129, 1815(1983); and B. Bonev, J. Hooper, J. Parisot, J. Antimicrob. Chemother., 61, 1295(2008), each incorporated herein by reference in their entirety). The organisms were streaked in radial patterns on the agar plates. Plates were incubated under aerobic conditions at 37° C. and 28° C. for 24 h and 48 h for bacteria and fungi, respectively. All prepared solutions were treated under the same conditions under the same incubated plates. All tests were performed in triplicate. Plates were examined for evidence of antimicrobial activities, represented by a zone of inhibition of the microorganism's growth around the holes, and diameters of clear zones were expressed in millimeters (R. Cruickshank, J. P. Duguid, B. P. Marmion, R. H. A. Swain, The practice of medicinal microbiology. In Medical Microbiology, 12th ed.; Churchill Livingstone: Edinburgh, UK, Volume 11, pp. 196-202 (1975), incorporated herein by reference in its entirety).

[2] = test system: Pseudomonas aeruginosa ATCC 9027
Description: as §1, §2, §3, §4

[3] = test system: Enterococcus faecalis ATCC 19433
Description: as §1, §2, §3, §4

[4] = test system: Aspergillus flavus ATCC 16883
Description: as §1, §2, §3, §4

[5] = test system: Staphylococcus aureus ATCC 6538
Description: as §1, §2, §3, §4

[6] = test system: Candida albicans ATCC 10231
Description: as §1, §2, §3, §4

[7] = test system: Bacillus subtilits NRRL-B-4219
Description: as §1, §2, §3, §4

Proteus sp. = test system: Proteus sp.
Description: as §1, §2, §3, §4

[8] = test system: Aspergillus niger NRRL 2766
Description: as §1, §2, §3, §4

| Structure (SMILES) | Inhibition zone, E. coli ([1]; standard antibiotic disc 10 μg) | Inhibition zone, P. aeruginosa ([2]; standard antibiotic disc 10 μg) | Inhibition zone, Ent. faecalis ([3]; standard antibiotic disc 10 μg) | Inhibition zone, A. flavus ([4]; standard antibiotic disc 10 μg) | Inhibition zone, S. aureus ([5]; standard antibiotic disc 10 μg) | Inhibition zone, C. albicans ([6]; standard antibiotic disc 10 μg) | Inhibition zone, B. subtilits ([7]; standard antibiotic disc 10 μg) | Inhibition zone, Proteus sp. (Proteus sp.; standard antibiotic disc 10 μg) | Inhibition zone, A. niger ([8]; standard antibiotic disc 10 μg) | Inhibition zone, E. coli ([1]; standard antibiotic disc 30 μg) | Inhibition zone, P. aeruginosa ([2]; standard antibiotic disc 30 μg) | Inhibition zone, Ent. faecalis ([3]; standard antibiotic disc 30 μg) | Inhibition zone, A. flavus ([4]; standard antibiotic disc 30 μg) | Inhibition zone, S. aureus ([5]; standard antibiotic disc 30 μg) | Inhibition zone, C. albicans ([6]; standard antibiotic disc 30 μg) | Inhibition zone, B. subtilits ([7]; standard antibiotic disc 30 μg) | Inhibition zone, Proteus sp. (Proteus sp.; standard antibiotic disc 30 μg) | Inhibition zone, A. niger ([8]; standard antibiotic disc 30 μg) |
| --- | --- | --- | --- | --- | --- | --- | --- | --- | --- | --- | --- | --- | --- | --- | --- | --- | --- | --- |
| [H]/N=C(/N)N[C@H]1[C@H](O)[C@@H](O)[C@H](O[C@@H]2O[C@@H](C)[C@](O)(C=O)[C@H]2O[C@@H]2O[C@@H](CO)[C@H](O)[C@@H](O)[C@@H]2NC)[C@@H](N/C(N)=N\[H])[C@@H]1O (relative stereo) [S*, Streptomycin] | 0 mm | 0 mm | 0 mm | 0 mm | 0 mm | 12 mm | 14 mm | 0 mm | 0 mm |  |  |  |  |  |  |  |  |  |
| NC[C@@H]1O[C@H](O[C@H]2[C@@H](O)[C@H](O[C@@H]3[C@@H](O)[C@H](N)C[C@H](N)[C@H]3O[C@H]3O[C@H](CN)[C@@H](O)[C@H](O)[C@H]3N)O[C@@H]2CO)[C@H](N)[C@@H](O)[C@@H]1O [N*, Neomycin] |  |  |  |  |  |  |  |  |  | 0 mm | 0 mm | 0 mm | 14 mm | 0 mm | 0 mm | 0 mm | 0 mm | 16 mm |
| CN(C)[C@@H]1C(O)=C(C(N)=O)C(=O)[C@@]2(O)C(O)=C3C(=O)c4c(O)cccc4[C@@](C)(O)[C@H]3[C@H](O)[C@@H]12 [T*, Oxytetracycline] |  |  |  |  |  |  |  |  |  | 0 mm | 0 mm | 0 mm | 0 mm | 0 mm | 0 mm | 30 mm | 0 mm | 0 mm |
| CN(C)[C@@H]1C(O)=C(C(N)=O)C(=O)[C@@]2(O)C(O)=C3C(=O)c4c(O)cccc4[C@@](C)(O)[C@H]3C[C@@H]12 [TE*, Tetracyciline] |  |  |  |  |  |  |  |  |  | 0 mm | 0 mm | 0 mm | 14 mm | 0 mm | 0 mm | 10 mm | 0 mm | 16 mm |
